Test results reported in patent US20230132823A1, “BI-FUNCTIONAL COMPOUNDS AND METHODS FOR TARGETED UBIQUITINATION OF ANDROGEN RECEPTOR” (MONTELINO THERAPEUTICS, INC., priority 2020, published 2023).

Key:
AR-FL = test: Immunoblot of AR-FL in harvested xenograft tumors; type: in vivo, human
Method: (§1) Immunoblot Analysis. CaP cells are collected and lysed with the lysis buffer (20 mM Tris-HCl (pH 7.5), 150 mM NaCl, 1 mM Na2EDTA, 1 mM EGTA, 1% Triton, 2.5 mM sodium pyrophosphate, 1 mM beta-glycerophosphate, 1 mM Na3VO4, and 1 μg/ml leupeptin) containing 1 mM phenylmethylsulfonyl fluoride (PMSF). Cell lysates are then centrifuged and protein in the supernatant is quantified. After separating 25-50 μg of protein using SDS-PAGE, samples are incubated with AR-V7, GR, PR, ERα, AR-FL, ubiquitin, or β-actin antibodies. For AR-V7, AR-FL, PR, GR, and ERα immunoblots, primary antibody is diluted 1:1000 in 5% skim milk. For the β-actin immunoblot, 1:10000 diluted primary antibody is used. […] Following the incubation with appropriate secondary antibody, immunoblots are analyzed using SuperSignal West Femto Maximum Sensitivity Substrate (ThermoFisher).
(§2) Mice are then treated daily with Test Compound with or without enzalutamide via the indicated route (intratumoral, intraperitoneal, or oral) for five to six weeks. At the end of the study, all animals are sacrificed and tumors are harvested and analyzed. Statistical significance is calculated using the Student's t-test for paired comparisons of experimental groups and, where appropriate, by Wilcoxon rank sum test, and by 2-way ANOVA. […]
(§3) The in vivo effects of the Compound of Example 16 are assessed in mice using enzalutamide-resistant CaP xenografts. […]

AR-V7 = biological target: T1, AR-V7 (Homo sapiens, UniProt P10275); test: Immunoblot of AR-V7 in harvested xenograft tumors; type: in vivo; set-up: endogenous in cells; host or cells: 22Rv1 (also VCaP, LNCaP and SAT-resistant sublines)
T1 sequence (P10275 1-644 isoform P10275-3): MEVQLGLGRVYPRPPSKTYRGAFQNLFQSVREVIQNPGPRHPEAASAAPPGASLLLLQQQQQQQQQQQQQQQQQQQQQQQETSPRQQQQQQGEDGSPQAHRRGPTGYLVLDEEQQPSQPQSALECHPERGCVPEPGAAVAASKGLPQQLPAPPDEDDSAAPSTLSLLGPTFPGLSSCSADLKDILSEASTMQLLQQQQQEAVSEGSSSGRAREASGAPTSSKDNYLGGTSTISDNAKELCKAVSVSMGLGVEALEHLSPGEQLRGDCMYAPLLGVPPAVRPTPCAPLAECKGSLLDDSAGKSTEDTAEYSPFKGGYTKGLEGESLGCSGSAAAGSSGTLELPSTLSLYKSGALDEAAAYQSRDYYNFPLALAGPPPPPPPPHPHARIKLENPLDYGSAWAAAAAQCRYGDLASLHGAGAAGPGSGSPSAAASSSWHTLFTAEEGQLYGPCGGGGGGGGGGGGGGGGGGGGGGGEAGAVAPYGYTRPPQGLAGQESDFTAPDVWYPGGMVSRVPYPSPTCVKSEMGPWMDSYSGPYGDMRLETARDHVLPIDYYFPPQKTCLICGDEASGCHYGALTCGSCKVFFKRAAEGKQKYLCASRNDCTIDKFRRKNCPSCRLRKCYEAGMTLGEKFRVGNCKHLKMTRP
Method: as §1, §2, §3

22Rv1 = test: LDH assay for non-specific cytotoxicity in 22Rv1; type: cell-based, human; settings: 22Rv1, up to 20 μM, six days (0.01, 0.1, 1, 10 and 20 μM tested)
Method: Apoptosis Assay. An apoptosis assay is carried out using the Thermo Fisher ApoDETECT Annexin V-FITC kit following the protocol recommended by the vendor. Briefly, after treatment with 1 μM of Test Compound for 3 to 24 hours, cells are fixed with 80% ethanol and washed with PBS three times. Then, fixed cells are incubated with Annexin V-FITC in PBS solution for 30 minutes at room temperature. After washing three times with PBS, cells are treated with 300 nM DAPI in PBS for 5 minutes at room temperature. Finally, after washing three times with PBS, mounting solution is added and the cells are visualized using immunofluorescence microscopy. Next, a TUNEL assay is performed using Promega DeadEnd Fluorometric TUNEL system. After treatment with Test Compound and fixation as described above in the Annexin-V experiment, 100 μl of equilibration buffer is incubated for 10 min. Then, 50 μl of TdT reaction mix is added and incubated for 60 min at 37° C. in a humidified chamber. Finally, stop solution is added and samples are mounted on slides using mounting medium. To assess non-specific cytotoxicity, an LDH assay kit is used.

[1] = system: Enzalutamide-resistant CaP tumor xenografts; test: Enzalutamide-resistant CaP tumor xenograft, systemic (IP or oral) dosing; type: in vivo, mice; settings: four weeks, with enzalutamide, control 2200 mm^3
Method: In Vivo Study. To explore the therapeutic potential of Test Compound, 22Rv1, 22Rv1-Enz^R, VCaP, and VCaP-Enz^R are injected into nu/nu immunodeficient mice. When the resulting tumors reached an average size of 3 mm in diameter, all animals are surgically castrated via bilateral orchiectomy and divided into four groups of five mice each. For anesthesia, 3% isoflurane gas inhalation is used. Tumor size was measured using calipers and tumor volume was calculated using the formula: tumor volume=length×width^2[…].
Mice are then treated daily with Test Compound with or without enzalutamide via the indicated route (intratumoral, intraperitoneal, or oral) for five to six weeks. At the end of the study, all animals are sacrificed and tumors are harvested and analyzed. Statistical significance is calculated using the Student's t-test for paired comparisons of experimental groups and, where appropriate, by Wilcoxon rank sum test, and by 2-way ANOVA. In vitro experiments are repeated a minimum of three times.
To test whether the Compound is active systemically, an identical study is carried out as above except for delivering the Compound intraperitoneally (IP) or orally for four weeks. Enzalutamide-resistant CaP tumor xenografts are established in twelve mice and three each are assigned to the following four groups: control IP (vehicle), control oral (vehicle), 8.3 mg/kg IP, and 8.3 mg/kg oral. […]

[2] = intratumoral, 22Rv1-Enz^R xenograft, end of study

- AR-V7 protein expression in Enz^R CaP tumors (AR-V7; IP administration): decreased
- AR-V7 protein level in treated tumors (AR-V7; [2]): significant decrease
Compound: Cc1ncsc1-c1ccc([C@H](C)NC(=O)[C@@H]2C[C@@H](O)CN2C(=O)[C@@H](NC(=O)CCCCNC(=O)COc2c(-c3csc(N4CCOCC4)n3)ccc(F)c2F)C(C)(C)C)cc1 [Example 16, (2S,4R)-1-((S)-2-(5-(2-(2,3-difluoro-6-(2-morpholinothiazol-4-yl)phenoxy)acetamido)pentanamido)-3,3-dimethylbutanoyl)-4-hydroxy-N-((S)-1-(4-(4-methylthiazol-5-yl)phenyl)ethyl)pyrrolidine-2-carboxamide]
- AR-FL protein expression in Enz^R CaP tumors (AR-FL; IP administration): decreased
- AR-FL protein level in treated tumors (AR-FL; [2]): significant decrease
- non-specific cytotoxic effect, lactate dehydrogenase (LDH) assay (22Rv1): no non-specific cytotoxic effect
- tumor size ([1]; 8.3 mg/kg IP): approximately 1000 mm^3
- tumor size ([1]; 8.3 mg/kg oral (PO)): approximately 700 mm^3
